Like-named read-outs stand apart in the source and are kept apart here.
Test: LC/MS retention time of standard compounds and sponge extract (in-house platform)
Format: physicochemical
Parameters: RT (retention time): unit not given here
Method: Total 22 compounds and 9 PNPA standards covering a long time-range were purchased as reference standards (Table 1). Each standard compound was experimentally measured with our in-house LC/MS platform with conditions in Supporting Table 1, available as supplementary data at Bioinformatics Advances online.
The resulting extract was dissolved in methanol and subjected to LC/MS analysis with conditions in Supporting Table 1, available as supplementary data at Bioinformatics Advances online, for metabolite profiling.

[1] = purchased PNPA standard, in-house LC/MS platform, conditions in Supporting Table 1 (not shown), retention time related to hydrophobic/hydrophilic substructures, unit not given

Row | Compound | RT (retention time) [1] | other results
1 | C=CC/C(=N/OS(=O)(=O)O)S[C@@H]1O[C@H](CO)[C@@H](O)[C@H](O)[C@H]1O [2-Propenyl glucosinolate] |  | RT (retention time of the reference compound) (LC/MS, in-house platform, reference compound used for retention order comparison, sheet COCONUT): 1.74 min
2 | C/C(=C\c1csc(C)n1)[C@@H]1C[C@@H]2O[C@]2(C)CCC[C@H](C)[C@H](O)[C@@H](C)C(=O)C(C)(C)[C@@H](O)CC(=O)O1 [Epothilone B] | 7.67 | 
3 | Bacitracin |  | RT (retention time): 4.67
4 | Gramicidin A | 9.19 | 
5 | Jaspamide [Measured compound] |  | Retention order of the measured compound against reference compound 2-Propenyl glucosinolate (binary 1/0) (column 'Measured compound', reference RT 1.74, observed order, no key for 1/0 printed, sheet COCONUT): 1; RT (retention time) of measured compound (compound detected in methanol extract of marine sponge Jaspis splendens, same in-house LC/MS conditions (Supporting Table 1), annotated as Jaspamide via retention order and MS/MS, unit not given): 8.45
6 | [Arg8]-Vasopressin | 3.11 | 
7 | α-Amanitin | 3.41 | 

Source: publication PMC12643230, “Retention order prediction of peptides containing non-proteinogenic amino acids” (Bioinformatics Advances, 2025)
